Patent publication US10596263B2, “Pazopanib formulation” (Novartis AG, priority 2011, dated 2020)

Tests used:
[1] = In-vivo exposure of the drug after micronization; conditions: micronized active substance
Description: The pazopanib active substance is preferably micronized. […] Particle size reduction also helps to improve the mouth-feel of the suspension. Micronization may be achieved using techniques known in the art. According to one embodiment, particle size reduction is achieved through the use of fluid energy jet mill wherein the powder gets suspended in a high velocity nitrogen gas stream in a milling chamber, and particle size is reduced due to the principle of impact and attrition due to the high velocity collisions between particles suspended within the nitrogen gas stream, causing them to break down into smaller particles. Centrifugal force causes the larger, heavy particles to separate from smaller, lighter particles. The small particles are dragged by the escaping fluid stream towards the center of the mill, where they are discharged into filter bags, and the material is then collected into drums. The large particles are thrown outward where they recirculate and re-collide, causing them to breakdown. According to one embodiment, the resulting particle size distribution of pazopanib hydrochloride particles is >90% between 0.61 and 10.0 microns. In another embodiment, at least 50% is from 1 to 10 microns, preferably from 1.1 to 3.9 microns. In another embodiment 90% is 20 microns or less, preferably 10 microns or less.

[2] = Physical stability (form conversion) of reconstituted pazopanib suspension, monitored by XRPD; assay type: physicochemical
Experimental: Regarding the use of buffers, physical stability of the invented suspension was determined to be a function of pH, temperature, buffering system, and buffer strength as shown in Table I (some repeat runs are shown).
By removing the sodium citrate from the buffering system the rate of formation of the citrate salt under both refrigerated and long term storage conditions was impeded. Suspensions containing citric acid and sodium phosphate buffering system at pH 4.0 with buffer strength from 0.05 to 0.20 M and no PVP were all stable up to 43 days at refrigerated conditions. At long term storage conditions of 25° C./60% RH form conversion was detected at day 7 but the citrate salt was first observed on day 20.
Table 4 depicts a qualitatively similar formulation to the exemplary formulation, Example 1. Both formulations were manufactured using the same unit operations and processing parameters. […] At long term storage conditions of 25° C./60% RH or room temperature the physical stability of the comparative suspension monitored by XRPD indicated a mixture of forms were detected at day 7 compared with the exemplary formulation (Table 3) that was stability up to 34 days. It was determined that the use of citric acid and trisodium citrate buffer system speed the conversion to the pazopanib citrate salt. It is believed that this is driven by the smaller buffering capacity of citric acid and trisodium citrate buffer.

[3] = Solubility of pazopanib in water at various pH; assay type: physicochemical
Description: FIG. 2 is a graph showing the solubility of pazopanib in water at various pH.
Based on the pH-solubility curve of pazopanib (FIG. 2) the solubility profile between pH 3 and pH 6 is on a steep slope and therefore, small changes in pH will have a large change in solubility. At the lower pH levels the citrate and monohydrate salts predominate and at the higher pH the freebase predominates. When the suspension is buffered at pH 3.5 and below with citric acid and sodium phosphate buffering system, the drug substance in the suspension changes form to the hydrate and Citrate salts in less than 17 days after reconstitution under refrigerated storage condition 5° C. […] Therefore, the compositions of this invention are such that when reconstituted they preferably provide a suspension with a pH from 2.5 to 4.5, preferably a pH of from 3.0 to 4.2, and most preferably a pH of from 3.5 to 4.0.

[4] = Citric Acid/Sodium Citrate 0.2M, initial pH 4.0, PVP 0% wt/wt, 5° C./Ambient
[5] = Citric Acid/Sodium Citrate 0.5M, initial pH 4.0, PVP 0% wt/wt, 25° C./60% RH
[6] = Citric Acid/Sodium Phosphate 0.1M, initial pH 4.0, PVP 0% wt/wt, 25° C./60% RH
[7] = Citric Acid/Sodium Phosphate 0.2M, initial pH 4.0, PVP 0% wt/wt, 25° C./60% RH
[8] = citric acid and sodium phosphate buffer, pH 4.0, 0.05 to 0.20 M, no PVP, 25° C./60% RH

in-vivo exposure, effect of micronization [1]: enhance | Physical Stability ([2]; Citric Acid/Sodium Citrate 0.05M, initial pH 4.0, PVP 0% wt/wt, 5° C./Ambient): 43 days | Physical Stability: conversion to citrate salt by day [2, 4]: by day 42 | Physical Stability: mixture of forms by day [2, 4]: day 21; | Physical Stability: conversion to citrate salt by day ([2]; Citric Acid/Sodium Citrate 0.2M, initial pH 4.0, PVP 0% wt/wt, 25° C./60% RH): day 7 | Physical Stability: conversion to citrate salt by day ([2]; Citric Acid/Sodium Citrate 0.5M, initial pH 4.0, PVP 0% wt/wt, 5° C./Ambient): day 14 | Physical Stability: conversion to citrate salt by day [2, 5]: day 14 | Physical Stability: mixture of forms at [2, 5]: initial; | Physical Stability ([2]; Citric Acid/Sodium Phosphate 0.05M, initial pH 4.0, PVP 0% wt/wt, 5° C./Ambient): 43 days | Physical Stability ([2]; Citric Acid/Sodium Phosphate 0.05M, initial pH 4.0, PVP 0% wt/wt, 25° C./60% RH): At least 7 Days; | Physical Stability ([2]; Citric Acid/Sodium Phosphate 0.1M, initial pH 4.0, PVP 0% wt/wt, 5° C./Ambient): 43 days | Physical Stability [2, 6]: At least 7 Days; | Physical Stability: mixture of forms by day [2, 6]: day 20 | Physical Stability: conversion to citrate salt by day ([2]; Citric Acid/Sodium Phosphate 0.2M, initial pH 3.0, PVP 0% wt/wt, 5° C./Ambient): day 17 | Physical Stability: conversion to citrate salt by day ([2]; Citric Acid/Sodium Phosphate 0.2M, initial pH 3.2, PVP 0% wt/wt, 5° C./Ambient): day 17 | Physical Stability: conversion to citrate salt by day ([2]; Citric Acid/Sodium Phosphate 0.2M, initial pH 3.5, PVP 0% wt/wt, 5° C./Ambient): day 17 | Physical Stability ([2]; Citric Acid/Sodium Phosphate 0.2M, initial pH 4.0, PVP 0% wt/wt, 5° C./Ambient): 43 days | Physical Stability [2, 7]: At least 7 Days; | Physical Stability: conversion to citrate salt by day [2, 7]: day 20 | Physical Stability ([2]; PVP added, citric acid and sodium phosphate, pH 4.0, buffering strength 0.05 M): at least 20 days | pazopanib monohydrochloride salt maintained until ([2]; PVP levels between 3.8 to 7.4% w/w, inclusive, citric acid and sodium phosphate, pH 4.0, 0.05 M): 34 days | drug substance changes form to the hydrate and Citrate salts after reconstitution ([2]; buffered at pH 3.5 and below, citric acid and sodium phosphate, refrigerated 5° C.): less than 17 days | form conversion started on day ([2]; citric acid and sodium citrate buffer, pH 4.0, buffer strength 0.05 M to 0.5 M, 5° C.): ≥ 14 days | Conversion of pazopanib to the citrate salt observed at ([2]; citric acid and sodium citrate buffer, pH 4.0, buffer strength 0.05 M to 0.5 M, 25° C./60% RH): initial to day 7 | citrate salt first observed on day [2, 8]: 20 days | form conversion detected at day [2, 8]: 7 days | stable (physical stability of suspension) ([2]; citric acid and sodium phosphate buffer, pH 4.0, 0.05 to 0.20 M, no PVP, refrigerated conditions): up to 43 days | pH-solubility profile ([3]; between pH 3 and pH 6, water (FIG. 2)): steep slope | solubility, effect of micronization ([3]; micronized active substance): enhance
Compound: Cc1ccc(Nc2nccc(N(C)c3ccc4c(C)n(C)nc4c3)n2)cc1S(N)(=O)=O [pazopanib, 5-[[4-[(2,3-dimethyl-2H-indazol-6-yl)methylamino]-2-pyrimidinyl]amino]-2-methylbenzenesulfonamide]
